Laboratory results: patent US9821000B2, “Compounds, compositions and corresponding uses for preventing and/or treating of dyslipidemia” (CENTRE NATIONAL DE LA RECHERCHE SCIENTIFIQUE (CNRS), priority 2013, dated 2017)
Entries after “also recorded” stand apart in the source; their conditions may differ.

How the values were obtained:
[1] = system: hem1Δ yeasts; test: Phospholipid fatty acid content by mass spectrometry in lipo-intoxicated hem1Δ yeasts; format: cell-based, Saccharomyces cerevisiae; details: hem1Δ, SFA accumulation, 100 μM compound; for production of di-unsaturated phospholipids (level of PC species 36:2): 7 h
Experimental: The hem1Δ yeasts were cultivated in standard conditions (control) or in conditions of SFA accumulation without (Ø) or with the addition of 100 μM of oleic acid, LPA or OAG as indicated.
FIG. 6A—After 7 h of incubation, the phospholipids (PL) were extracted and the different species of phosphatidylcholine (PC), which constitute the predominantly present PL were analyzed by mass spectrometry in positive mode, according to Pineau et al. (2008).
FIG. 6B—All the species of PL detectable in these conditions of mass spectrometry were analyzed to globally quantify the content in SFA forms.
The hem1Δ strain is cultivated in a YPG^A, YPG^+ or YPG^+ liquid medium+200 μM of compound to be tested in aerobic conditions, under stirring and at 28° C. for 7 h, starting from an initial cell concentration of 2·10^6 cells/mL. At the end of the culture, 10^8 cells are collected in order to carry out the extraction of the total lipids. After the cells have been put in suspension in 1 mL of distilled water at 4° C., 500 μL of glass beads (Ø 0.6 mm) are added and the whole mixture then undergoes three sequences of 20 seconds at 5000 rpm in a stirrer (the tubes are kept on ice between each of the three sequences). The cellular lysate then obtained, complemented with water for rinsing the beads (1 mL), is then transferred into a 40 mL glass tube (Corex™) and then the lipids are extracted by using a methanol:chloroform ratio of 2:1 (v/v). Initially, 6 mL of methanol are added and the entire mixture is vortexed for 30 seconds and then incubated for 15 minutes at 65° C. Once the mixture has been cooled to ambient temperature, […] of chloroform is added and then the entire mixture is again vortexed for 30 seconds before allowing the extraction to take place for 16 h. Subsequently, the sample is centrifuged for 12 minutes at 10000 g and then the supernatant is transferred into a new Corex™ tube. After the addition of 2 mL of chloroform and then 4 mL of distilled water, the entire mixture is vortexed for 30 seconds and then centrifuged for 8 minutes at 3000 g. After elimination of the resultant upper phase, the lower organic phase is collected in a hemolysis tube made of glass. Finally, the solvent is evaporated under a nitrogen stream at 80° C. to obtain total cell lipid samples.
The samples of total cell lipids are put back into suspension in 1 mL of dichloromethane in being vortexed for 30 seconds. The entire mixture is deposited on a silica column (BOND ELUT-SI, 100 mg 1 mL) preconditioned with 3 mL of methanol and then 2 mL of dichloromethane successively. The fraction retained by the column is then washed with 2 mL of dichloromethane and then 2 mL of acetone successively. Finally, 2 mL of a mixture of chloroform/methanol/water 50:45:5 (v/v/v) are deposited on the column and the phospholipids thus eluted are collected in a glass hemolysis tube. The solvent is evaporated under nitrogen at 80° C. to obtain the samples of cellular phospholipids.
Once put back into suspension in 100 μL of mixture Mix^− (isopropanol/acetonitrile/water 2:1:1 (v/v/v)+triethylamine 1% (v/v)) or mixture Mix^+ (isopropanol/acetonitrile/water 2:1:1 (v/v/v)+formic acid 1% (v/v)), the samples are analyzed by mass spectrometry (Electro Spray Ionization-Mass Spectrometry (ESI-MS)) in negative or positive mode respectively and the results obtained serve to analyze the fatty acid content of the different species of phospholipids.

[2] = system: UPR response; test: UPR triggering test (4xUPRE-LacZ reporter, β-galactosidase activity) in hem1Δ yeast; format: cell-based, Saccharomyces cerevisiae; details: hem1Δ in liquid medium inducing SFA accumulation, 200 μM compound
Excerpt: A plasmidic construction carrying a fusion gene, corresponding to the encoding sequence of the gene LacZ placed under dependence of an artificial promoter containing four UPR elements (UPRE) was introduced into a hem1Δf yeast strain, as described in Pineau et al. (2009). During an induction of the UPR response, the Hac1p/XBP1p transcription is activated and gets fixed on the UPR elements of the fusion gene, leading to the transcription of the LacZ gene. With LacZ encoding β-galactosidase, the level of induction of UPR is measured to detect the corresponding enzyme activity. The hem1Δ yeast strain was cultivated in a liquid medium inducing the accumulation of SFA without other addition (Ø), or in the same medium supplemented with 200 μM of oleic acid, OAG or LPA as indicated. A.U.: arbitrary units.
The hem1Δ strain transformed by the plasmid pPW344 [2 μ URA34×UPRE-LacZ (Patil et al., 2004)] is cultivated in liquid medium YPG^A, YPG or YPG+200 μM of compound to be tested in aerobic conditions, under stirring and at 28° C. for 7 h, starting from an initial cell concentration of 2·10^6 cells/mL. At the end of the culture, 10^8 cells are collected in order to quantify the beta-galactosidase (β-gal) activity resulting from the expression of the LacZ trans gene (in the case of a triggering of UPR). […]

SMILES	production of di-unsaturated phospholipids (level of PC species 36:2) [1]	UPR response in lipo-intoxicated yeasts (β-galactosidase activity) [2]	index of saturation of phospholipids compared with control condition [1]
CCCCCCCC/C=C\CCCCCCCC(=O)OC[C@@H](O)COP(=O)(O)O [LPA, 1-oleoyl-sn-glycerol-3-phosphate]	increase of the level of this species	reduce the UPR response	–
CCCCCCCC/C=C\CCCCCCCC(=O)OC[C@H](CO)OC(C)=O [OAG, 1-oleoyl-2-acetyl-sn-glycerol]	does not restore the production; also recorded: not the case	reduce the UPR response	does not restore an index of saturation comparable to the one observed in the control condition
